Test results: patent US9315463B2, “Cyclohexylamine derivatives having β2 adrenergic agonist and M3 muscarinic antagonist activities” (Almirall, S.A., priority 2010, dated 2016)
Read-outs that look alike come from different tables or passages of the source.

Assays:
[1] = biological target: human adrenergic beta2 receptor (Homo sapiens (Human), UniProt P07550); experiment: Human adrenergic β2 receptor binding assay (3H-CGP12177, Sf9 membranes)
Experimental: Test 1: Human Adrenergic β1 and β2 Receptor Binding Assays
The study of binding to human adrenergic beta1 and beta2 receptors was performed using commercial membranes prepared from Sf9 cells where they are overexpressed (Perkin Elmer). The membrane suspensions (16 μg/well for beta1 and 5 μg/well for beta2) in assay buffer (75 mM Tris/HCl with 12.5 mM MgCl2 and 2 mM EDTA pH=7.4) were incubated with 0.14 or 0.6 nM of 3H-CGP12177 (Amersham) for beta 1 and beta 2 receptors respectively in a final volume of 250 μl, in GFC Multiscreen 96 well plates (Millipore) previously treated with assay buffer containing 0.3% PEI (Sigma). Non specific binding was measured in the presence of 1 μM propanolol. Incubation was maintained for 60 minutes at room temperature and with gentle shaking. The binding reactions were terminated by filtration and washing with 2.5 volumes of Tris/HCl 50 mM pH=7.4. The affinity of each test compound to the receptor was determined by using ten different concentrations ran in duplicate. IC50s were calculated using Activity Base software from IDBS and the four parameters-log equation.

[2] = biological target: human muscarinic M3 receptor (Homo sapiens (Human), UniProt P20309); experiment: Human muscarinic M3 receptor binding assay ([3H]-NMS, CHO-K1 membranes)
Experimental: Test 2: Human Muscarinic M1, M2, M3, M4 and M5Receptors Binding Assays
The study of binding to human muscarinic M1, M2, M3, M4 and M5 receptors was performed using commercial membranes (Perkin Elmer) prepared from CHO-K1 cells. Radioligand binding experiments were conducted in 96 polypropylene well plates in a total volume of 200 μl. All reagents were dissolved in assay binding buffer (PBS with calcium and magnesium, SIGMA), except compounds that were dissolved in DMSO 100%. Non-specific binding (NSB) was measured in the presence of 1 μM atropine. [3H]-NMS was used as the radioligand at a concentration of 1 nM for M2, M3 and M5 and 0.3 nM for M1 and M4. [3H]-NMS and antagonists were incubated with membranes that express human muscarinic receptors M1, M2, M3, M4 and M5 at concentrations of 8.1, 10, 4.9, 4.5 and 4.9 μg/well, respectively.
After an incubation period of two hours with gentle shaking, 150 μl of the reaction mix were transferred to 96 GF/C filter plates (Millipore), previously treated with wash buffer (Tris 50 mM; NaCl 100 mM; pH: 7.4), containing 0.05% PEI (Sigma) during one hour. Bound and free [3H]-NMS were separated by rapid vacuum filtration in a manifold from Millipore and washed four times with ice cold wash buffer. After drying 30 min, 30 μl of OPTIPHASE Supermix were added to each well and radioactivity quantified using a Microbeta microplate scintillation counter.
The affinity of each test compound to the receptors was determined by using ten different concentrations ran in duplicate. IC50s were calculated using Activity Base software from IDBS and the four parameters-log equation.

[3] = 3H-CGP12177 displacement, read-out: Binding IC50, nM β2
[4] = [3H]-NMS displacement, read-out: Binding IC50, nM M3

human muscarinic M3 receptor, sequence (P20309 whole entry): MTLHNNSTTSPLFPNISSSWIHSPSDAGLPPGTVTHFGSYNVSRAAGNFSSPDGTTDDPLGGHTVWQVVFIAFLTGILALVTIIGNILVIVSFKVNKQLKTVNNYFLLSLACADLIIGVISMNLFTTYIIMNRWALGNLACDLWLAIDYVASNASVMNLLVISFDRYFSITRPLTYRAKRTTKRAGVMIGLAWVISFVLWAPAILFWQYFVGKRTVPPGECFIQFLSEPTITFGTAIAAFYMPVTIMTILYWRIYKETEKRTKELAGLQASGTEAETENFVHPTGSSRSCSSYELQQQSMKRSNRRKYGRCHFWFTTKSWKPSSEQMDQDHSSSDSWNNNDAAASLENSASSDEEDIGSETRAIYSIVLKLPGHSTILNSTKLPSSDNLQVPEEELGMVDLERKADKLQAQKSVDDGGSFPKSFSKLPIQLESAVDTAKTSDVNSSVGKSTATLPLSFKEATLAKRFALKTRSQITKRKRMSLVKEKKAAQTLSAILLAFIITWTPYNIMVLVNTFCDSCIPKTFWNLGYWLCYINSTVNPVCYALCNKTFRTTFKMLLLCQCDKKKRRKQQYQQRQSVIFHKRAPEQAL
human adrenergic beta2 receptor, sequence (P07550 whole entry): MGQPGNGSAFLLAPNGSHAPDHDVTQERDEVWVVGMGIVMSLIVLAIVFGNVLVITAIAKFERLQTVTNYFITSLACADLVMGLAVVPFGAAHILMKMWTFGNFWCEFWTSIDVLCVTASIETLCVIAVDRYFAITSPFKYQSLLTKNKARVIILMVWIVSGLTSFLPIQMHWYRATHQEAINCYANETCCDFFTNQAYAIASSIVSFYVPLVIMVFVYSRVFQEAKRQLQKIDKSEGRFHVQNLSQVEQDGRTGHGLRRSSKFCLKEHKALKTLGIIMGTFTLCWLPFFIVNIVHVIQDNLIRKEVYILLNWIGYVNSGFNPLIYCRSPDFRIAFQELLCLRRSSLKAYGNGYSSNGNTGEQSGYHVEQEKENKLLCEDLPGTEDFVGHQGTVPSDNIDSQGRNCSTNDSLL

Structure (SMILES) | IC50 [1, 3] [nM] | IC50 [2, 4] [nM] | IC50 ([1]; read-out: Binding IC50, nM β2, 3H-CGP12177 displacement) [nM] | IC50 ([2]; read-out: Binding IC50, nM M3, [3H]-NMS displacement) [nM]
COc1cc(NC(=O)CCN(C)[C@H]2CC[C@H](OC(=O)C(O)(c3cccs3)c3cccs3)CC2)c(F)cc1CNC[C@H](O)c1ccc(O)c2[nH]c(=O)ccc12 [Example 16, trans-4-[(3-{[2-fluoro-4-({[(2R)-2-hydroxy-2-(8-hydroxy-2-oxo-1,2-dihydroquinolin-5-yl)ethyl]amino}methyl)-5-methoxyphenyl]amino}-3-oxopropyl)(methyl)amino]-cyclohexyl hydroxy(di-2-thienyl)acetate] | 4.8 | 2 | – | –
CN(CCC(=O)Nc1cc(F)c(CNC[C@H](O)c2ccc(O)c3[nH]c(=O)ccc23)cc1F)[C@H]1CC[C@H](OC(=O)C(O)(c2cccs2)c2cccs2)CC1 [Example 18, trans-4-[(3-{[2,5-difluoro-4-({[(2R)-2-hydroxy-2-(8-hydroxy-2-oxo-1,2-dihydroquinolin-5-yl)ethyl]amino}methyl)phenyl]amino}-3-oxopropyl)-(methyl)amino]cyclohexyl hydroxy(di-2-thienyl)acetate hydrofluoride (1:2)] | 13 | 1.6 | – | –
COc1cc(NC(=O)CCN(C)[C@H]2CC[C@](C)(OC(=O)C(O)(c3cccs3)c3cccs3)CC2)c(Cl)cc1CNC[C@H](O)c1ccc(O)c2[nH]c(=O)ccc12 [Example 13, trans-4-[(3-{[2-chloro-4-({[(2R)-2-hydroxy-2-(8-hydroxy-2-oxo-1,2-dihydroquinolin-5-yl)ethyl]amino}methyl)-5-methoxyphenyl]amino}-3-oxopropyl)(methyl)amino]-1-methylcyclohexyl hydroxy(di-2-thienyl)acetate] | 2.2 | 2.1 | – | –
COc1cc(NC(=O)OCCN(C)[C@H]2CC[C@H](OC(=O)C(O)(c3cccs3)c3cccs3)CC2)c(Cl)cc1CNC[C@H](O)c1ccc(O)c2[nH]c(=O)ccc12 [Example 12, trans-4-[{2-[({[2-chloro-4-({[(2R)-2-hydroxy-2-(8-hydroxy-2-oxo-1,2-dihydroquinolin-5-yl)ethyl]amino}methyl)-5-methoxyphenyl]amino}carbonyl)oxy]ethyl}-(methyl)amino]cyclohexyl hydroxy(di-2-thienyl)acetate hydrofluoride] | 1.6 | 1.6 | – | –
COc1cc(NC(=O)OCCN(C)[C@H]2CC[C@H](OC(=O)[C@](O)(c3ccccc3)C3CCCC3)CC2)c(Cl)cc1CNC[C@H](O)c1ccc(O)c2[nH]c(=O)ccc12 [Example 28, trans-4-[{2-[({[2-chloro-4-({[(2R)-2-hydroxy-2-(8-hydroxy-2-oxo-1,2-dihydroquinolin-5-yl)ethyl]amino}methyl)-5-methoxyphenyl]amino}carbonyl)oxy]ethyl}-(methyl)amino]cyclohexyl (2R)-cyclopentyl (hydroxy)phenylacetate] | 1.3 | 8.5 | – | –
COc1cc(NC(=O)CCN(C)[C@H]2CC[C@H](OC(=O)C(O)(c3cccs3)c3cccs3)CC2)c(Cl)cc1CCNC[C@H](O)c1ccc(O)c2[nH]c(=O)ccc12 [Example 20, trans-4-[(3-{[2-chloro-4-(2-{[(2R)-2-hydroxy-2-(8-hydroxy-2-oxo-1,2-dihydroquinolin-5-yl)ethyl]amino}ethyl)-5-methoxyphenyl]amino}-3-oxopropyl)-(methyl)amino]cyclohexyl hydroxy(di-2-thienyl)acetate hydrofluoride (1:2)] | 5.3 | 0.7 | – | –
CN(CCCCCCCCCNC[C@H](O)c1ccc(O)c2[nH]c(=O)ccc12)C1CCC(OC(=O)C(O)(c2cccs2)c2cccs2)CC1 (stereo partly drawn) [Example 1, trans-4-[(9-{[(2R)-2-hydroxy-2-(8-hydroxy-2-oxo-1,2-dihydroquinolin-5-yl)ethyl]-amino}nonyl)(methyl)amino]cyclohexyl hydroxy(di-2-thienyl)acetate formiate (2:1)] | – | – | 6.4 | 0.2
COc1cc(OCCCCN(C)[C@H]2CC[C@H](OC(=O)C(O)(c3cccs3)c3cccs3)CC2)c(Cl)cc1CNC[C@H](O)c1ccc(O)c2[nH]c(=O)ccc12 [Example 25, trans-4-[{4-[2-chloro-4-({[(2R)-2-hydroxy-2-(8-hydroxy-2-oxo-1,2-dihydroquinolin-5-yl)ethyl]amino}methyl)-5-methoxyphenoxy]butyl}(methyl)amino]cyclohexyl hydroxy(di-2-thienyl)acetate hydrofluoride (1:2)] | 9.6 | 0.3 | – | –
COc1cc(NC(=O)OCCN(C)[C@H]2CC[C@H](OC(=O)C(O)(c3cccs3)c3cccs3)CC2)c(C#N)cc1CNC[C@H](O)c1ccc(O)c2[nH]c(=O)ccc12 [Example 22, trans-4-[{2-[({[2-cyano-4-({[(2R)-2-hydroxy-2-(8-hydroxy-2-oxo-1,2-dihydroquinolin-5-yl)ethyl]amino}methyl)-5-methoxyphenyl]amino}carbonyl)-oxy]ethyl}(methyl)amino]cyclohexyl hydroxy(di-2-thienyl)acetate hydrofluoride (1:2)] | 4.5 | 1.4 | – | –
COc1cc(NC(=O)OCCN(C)[C@H]2CC[C@H](OC(=O)[C@](O)(c3cccs3)C3CCCC3)CC2)c(Cl)cc1CNC[C@H](O)c1ccc(O)c2[nH]c(=O)ccc12 [Example 29, trans-4-[{2-[({[2-chloro-4-({[(2R)-2-hydroxy-2-(8-hydroxy-2-oxo-1,2-dihydroquinolin-5-yl)ethyl]amino}methyl)-5-methoxyphenyl]amino}carbonyl)-oxy]ethyl}(methyl)amino]cyclohexyl (2S)-cyclopentyl(hydroxy)-2-thienylacetate] | 1.1 | 3.8 | – | –
COc1cc(NC(=O)OCCN(C)[C@H]2CC[C@H](OC(=O)C(O)(c3cccs3)c3cccs3)CC2)c(Cl)cc1CNC[C@H](O)c1ccc(O)c2c1OCC(=O)N2 [Example 26, trans-4-[{2-[({[2-chloro-4-({[(2R)-2-hydroxy-2-(5-hydroxy-3-oxo-3,4-dihydro-2H-1,4-benzoxazin-8-yl)ethyl]amino}methyl)-5-methoxyphenyl]amino}carbonyl)-oxy]ethyl}(methyl)amino]cyclohexyl hydroxy(di-2-thienyl)acetate] | 0.38 | 1.7 | – | –
